# Results: US10428044B2, “3-amino-1,5,6,7-tetrahydro-4H-indol-4-ones” (Bayer Pharma Aktiengesellschaft, priority 2014, dated 2019)
# Molecular target: (recombinant) catalytic domain of human Bub1 (amino acids 704-1085) (Homo sapiens (Human), UniProt O43683)
# Test: Bub1 kinase assay (TR-FRET)
# Type: biochemical
# Conditions: ATP 10 μM final, peptide substrate 1 μM final, 60 min at 22° C., read-out: Biological Assay: Bub1 kinase assay median IC50
# Summary of the method: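 Readout was TR-FRET between a Eu-labeled antibody complex recognizing phosphoserine and streptavidin-XL665 on the biotinylated peptide, after EDTA stop and 1 h at 22° C. The kinase reaction ran for 60 min at 22° C. Values are means or medians of repeat tests, from 4-parameter fits normalized to enzyme-free and inhibitor-free controls.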
# (recombinant) catalytic domain of human Bub1 (amino acids 704-1085), sequence (O43683 704-1085): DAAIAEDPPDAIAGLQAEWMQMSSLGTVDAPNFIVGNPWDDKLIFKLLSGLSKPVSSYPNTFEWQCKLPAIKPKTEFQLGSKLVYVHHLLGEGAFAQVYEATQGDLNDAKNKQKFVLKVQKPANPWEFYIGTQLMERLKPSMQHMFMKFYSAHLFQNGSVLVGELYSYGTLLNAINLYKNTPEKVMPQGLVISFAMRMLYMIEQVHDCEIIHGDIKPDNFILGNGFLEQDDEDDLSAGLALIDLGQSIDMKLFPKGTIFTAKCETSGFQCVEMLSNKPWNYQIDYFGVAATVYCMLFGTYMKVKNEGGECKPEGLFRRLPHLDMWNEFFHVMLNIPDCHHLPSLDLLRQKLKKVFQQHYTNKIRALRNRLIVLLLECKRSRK
row,SMILES,IC50
1,"CC1(C)CC(=O)c2c([nH]c(-c3ccnc(N)c3)c2Nc2cccc(Br)c2)C1 [Example 203, 2-(2-aminopyridin-4-yl)-3-[(3-bromophenyl)amino]-6,6-dimethyl-1,5,6,7-tetrahydro-4H-indol-4-one]",115 nM
2,"CCc1ccc(Nc2c(-c3ccncc3)[nH]c3c2C(=O)CC(C)(C)C3)cc1 [Example 83, 3-[(4-ethylphenyl)amino]-6,6-dimethyl-2-(pyridin-4-yl)-1,5,6,7-tetrahydro-4H-indol-4-one]",293 nM
3,"CC1(C)CC(=O)c2c([nH]c(-c3cc(N)ncn3)c2Nc2ccccc2)C1 [Example 224, 2-(6-aminopyrimidin-4-yl)-6,6-dimethyl-3-(phenylamino)-1,5,6,7-tetrahydro-4H-indol-4-one]",248 nM
4,"COCCOc1cnccc1-c1[nH]c2c(c1Nc1ccccc1)C(=O)CC(C)(C)C2 [Example 410, 2-[3-(2-methoxyethoxy)pyridin-4-yl]-6,6-dimethyl-3-(phenylamino)-1,5,6,7-tetrahydro-4H-indol-4-one]",3.55 nM
5,"CC1(C)CC(=O)c2c([nH]c(-c3cc[n+](CCCO)cc3)c2Nc2ccccc2)C1 [Example 191, 4-[6,6-dimethyl-4-oxo-3-(phenylamino)-4,5,6,7-tetrahydro-1H-indol-2-yl]-1-(3-hydroxypropyl)pyridinium iodide]",326 nM
6,"CC(C)C1CC(=O)c2c([nH]c(-c3ccnc(NC(=O)C4CC4)c3)c2Nc2cccc(F)c2)C1 (centres unmarked) [Example 320, N-{4-[3-[(3-fluorophenyl)amino]-4-oxo-6-(propan-2-yl)-4,5,6,7-tetrahydro-1H-indol-2-yl]pyridin-2-yl}cyclopropanecarboxamide]",8.04 nM
7,"CC(C)(F)C(=O)Nc1cc(-c2[nH]c3c(c2Nc2ccccc2)C(=O)CCC3)ccn1 [Example 242, 2-fluoro-2-methyl-N-{4-[4-oxo-3-(phenylamino)-4,5,6,7-tetrahydro-1H-indol-2-yl]pyridin-2-yl}propanamide]",182 nM
8,"O=C1CCCc2[nH]c(-c3ccnc(NCCCc4ccccc4)c3)c(Nc3ccccc3)c21 [Example 490, 3-(phenylamino)-2-{2-[(3-phenylpropyl)amino]pyridin-4-yl}-1,5,6,7-tetrahydro-4H-indol-4-one]",2560 nM
9,"CC1(C)CC(=O)c2c([nH]c(-c3ccnc(Nc4cnn(Cc5ccccc5)c4)c3)c2Nc2ccccc2)C1 [Example 204, 2-{2-[(1-benzyl-1H-pyrazol-4-yl)amino]pyridin-4-yl}-6,6-dimethyl-3-(phenylamino)-1,5,6,7-tetrahydro-4H-indol-4-one]",42.6 nM
10,"CC(C)NC(=O)Nc1cc(-c2[nH]c3c(c2Nc2ccccc2)C(=O)CCC3)ccn1 [Example 378, 1-{4-[4-oxo-3-(phenylamino)-4,5,6,7-tetrahydro-1H-indol-2-yl]pyridin-2-yl}-3-propan-2-ylurea]",64.5 nM
11,"CC(C)C1CC(=O)c2c([nH]c(-c3ccnc(NC(=O)C4CC4)c3)c2Nc2ccccc2)C1 (centres unmarked) [Example 318, N-{4-[4-oxo-3-(phenylamino)-6-(propan-2-yl)-4,5,6,7-tetrahydro-1H-indol-2-yl]pyridin-2-yl}cyclopropanecarboxamide]",9.71 nM
12,"CC(C)C1CC(=O)c2c([nH]c(-c3ccncc3)c2Nc2ccccc2)C1 (single isomer, unassigned) [Example 18, 3-(phenylamino)-6-(propan-2-yl)-2-(pyridin-4-yl)-1,5,6,7-tetrahydro-4H-indol-4-one]",5.09 nM
13,"Cn1cc(NC(=O)Nc2cc(-c3[nH]c4c(c3Nc3ccccc3)C(=O)CC(C)(C)C4)ccn2)cn1 [Example 391, 1-{4-[6,6-dimethyl-4-oxo-3-(phenylamino)-4,5,6,7-tetrahydro-1H-indol-2-yl]pyridin-2-yl}-3-(1-methyl-1H-pyrazol-4-yl)urea]",4.52 nM
14,"Nc1cc(-c2[nH]c3c(c2Nc2cccc(F)c2)C(=O)CCC3)ccn1 [Example 138, 2-(2-aminopyridin-4-yl)-3-[(3-fluorophenyl)amino]-1,5,6,7-tetrahydro-4H-indol-4-one]",92.4 nM
15,"Cc1cccc(Nc2c(-c3ccncc3)[nH]c3c2C(=O)CC(C)(C)C3)c1 [Example 3, 6,6-dimethyl-3-[(3-methylphenyl)amino]-2-(pyridin-4-yl)-1,5,6,7-tetrahydro-4H-indol-4-one]",37.8 nM
16,"Cn1ccnc1COCC(=O)Nc1cc(-c2[nH]c3c(c2Nc2ccccc2)C(=O)CCC3)ccn1 [Example 493, 2-[(1-methyl-1H-imidazol-2-yl)methoxy]-N-{4-[4-oxo-3-(phenylamino)-4,5,6,7-tetrahydro-1H-indol-2-yl]pyridin-2-yl}acetamide]",8.63 nM
17,"CC1(C)CC(=O)c2c([nH]c(-c3ccncc3)c2Nc2ccccc2C(N)=O)C1 [Example 429, 2-{[6,6-dimethyl-4-oxo-2-(pyridin-4-yl)-4,5,6,7-tetrahydro-1H-indol-3-yl]amino}benzamide]",70.9 nM
18,"O=C1CCCc2[nH]c(-c3ccnc(NCCC(F)(F)F)c3)c(Nc3ccccc3)c21 [Example 365, 3-(phenylamino)-2-{2-[(3,3,3-trifluoropropyl)amino]pyridin-4-yl}-1,5,6,7-tetrahydro-4H-indol-4-one]",604 nM
19,"Cn1ccnc1CC(=O)Nc1cc(-c2[nH]c3c(c2Nc2ccccc2)C(=O)CCC3)ccn1 [Example 463, N-[4-(3-anilino-4-oxo-4,5,6,7-tetrahydro-1H-indol-2-yl)pyridin-2-yl]-2-(1-methyl-1H-imidazol-2-yl)acetamide]",142 nM
20,"CC1(C)CC(=O)c2c([nH]c(-c3ccncc3)c2Nc2cccc(C3(C)OCCO3)c2)C1 [Example 153, 6,6-dimethyl-3-{[3-(2-methyl-1,3-dioxolan-2-yl)phenyl]amino}-2-(pyridin-4-yl)-1,5,6,7-tetrahydro-4H-indol-4-one]",11500 nM
21,"COc1ccc(Nc2c(-c3ccncc3)[nH]c3c2C(=O)CC(C)(C)C3)c(OC)c1 [Example 62, 3-[(2,4-dimethoxyphenyl)amino]-6,6-dimethyl-2-(pyridin-4-yl)-1,5,6,7-tetrahydro-4H-indol-4-one]",167 nM
22,"CN(C)CC(=O)Nc1cc(-c2[nH]c3c(c2Nc2ccccc2)C(=O)CCC3)ccn1 [Example 307, N^2,N^2;-dimethyl-N-{4-[4-oxo-3-(phenylamino)-4,5,6,7-tetrahydro-1H-indol-2-yl]pyridin-2-yl}glycinamide]",208 nM
23,"Cn1cc(Nc2cc(-c3[nH]c4c(c3Nc3ccccc3)C(=O)CC(C)(C)C4)ccn2)cn1 [Example 205, 6,6-dimethyl-2-{2-[(1-methyl-1H-pyrazol-4-yl)amino]pyridin-4-yl}-3-(phenylamino)-1,5,6,7-tetrahydro-4H-indol-4-one]",22.9 nM

# More lines, in order of falling IC50, values ahead:
row,IC50,SMILES
1,738 nM,"C[C@H](C(=O)Nc1cc(-c2[nH]c3c(c2Nc2ccccc2)C(=O)CCC3)ccn1)N(C)C(=O)OC(C)(C)C [Example 301, tert-butyl methyl[(2R)-1-oxo-1-({4-[4-oxo-3-(phenylamino)-4,5,6,7-tetrahydro-1H-indol-2-yl]pyridin-2-yl}amino)propan-2-yl]carbamate]"
2,200 nM,"CC1(C)CC(=O)c2c(Nc3ccccc3)c(-c3ccncc3)n(CCO)c2C1 [Example 184, 1-(2-hydroxyethyl)-6,6-dimethyl-3-(phenylamino)-2-(pyridin-4-yl)-1,5,6,7-tetrahydro-4H-indol-4-one]"
3,136 nM,"CC1(C)CC(=O)c2c([nH]c(-c3ccncc3)c2Nc2cccc(C(F)(F)F)c2)C1 [Example 51, 6,6-dimethyl-2-(pyridin-4-yl)-3-{[3-(trifluoromethyl)phenyl]amino}-1,5,6,7-tetrahydro-4H-indol-4-one]"
4,125 nM,"Cn1c2c(c(Nc3ccccc3)c1-c1ccncc1)C(=O)CCC2 [Example 169, 1-methyl-3-(phenylamino)-2-(pyridin-4-yl)-1,5,6,7-tetrahydro-4H-indol-4-one]"
5,102 nM,"CC(=O)O/N=C1\CC(C)(C)Cc2[nH]c(-c3ccncc3)c(Nc3ccccc3)c21 [Example 195, 1-({(E)-[6,6-dimethyl-3-(phenylamino)-2-(pyridin-4-yl)-1,5,6,7-tetrahydro-4H-indol-4-ylidene]amino}oxy)ethanone]"
6,101 nM,"Cc1c(Cl)cccc1Nc1c(-c2ccncc2)[nH]c2c1C(=O)CC(C)(C)C2 [Example 91, 3-[(3-chloro-2-methylphenyl)amino]-6,6-dimethyl-2-(pyridin-4-yl)-1,5,6,7-tetrahydro-4H-indol-4-one]"
7,40.2 nM,"CCn1c2c(c(Nc3ccccc3)c1-c1ccncc1)C(=O)CCC2 [Example 170, 1-ethyl-3-(phenylamino)-2-(pyridin-4-yl)-1,5,6,7-tetrahydro-4H-indol-4-one]"
8,40.1 nM,"O=C1CCC(O)c2[nH]c(-c3ccncc3)c(Nc3ccccc3)c21 (centres unmarked) [Example 446, 7-hydroxy-3-(phenylamino)-2-(pyridin-4-yl)-1,5,6,7-tetrahydro-4H-indol-4-one]"
9,13.2 nM,"CC1CC1C(=O)Nc1cc(-c2[nH]c3c(c2Nc2ccccc2)C(=O)CCC3)ccn1 (centres unmarked) [Example 237, 2-methyl-N-{4-[4-oxo-3-(phenylamino)-4,5,6,7-tetrahydro-1H-indol-2-yl]pyridin-2-yl}cyclopropanecarboxamide]"
10,10 nM,"CC1(C)CC(=O)c2c([nH]c(-c3ccncc3)c2Nc2ccccc2)C1O (centres unmarked) [Example 445, 7-hydroxy-6,6-dimethyl-3-(phenylamino)-2-(pyridin-4-yl)-1,5,6,7-tetrahydro-4H-indol-4-one]"
11,8.69 nM,"CC(=O)Nc1cc(-c2[nH]c3c(c2Nc2cccc(F)c2)C(=O)CC(C(C)C)C3)ccn1 (centres unmarked) [Example 319, N-{4-[3-[(3-fluorophenyl)amino]-4-oxo-6-(propan-2-yl)-4,5,6,7-tetrahydro-1H-indol-2-yl]pyridin-2-yl}acetamide]"
12,7.19 nM,"CC1(C)CC(=O)c2c([nH]c(-c3ccnc(NC(=O)c4ccn[nH]4)c3)c2Nc2ccccc2)C1 [Example 465, N-{4-[6,6-dimethyl-4-oxo-3-(phenylamino)-4,5,6,7-tetrahydro-1H-indol-2-yl]pyridin-2-yl}-1H-pyrazole-3-carboxamide]"
